Assay results reported in the supplement of paper PMC13207355.

Experiments:
Settings in all cases: exposure time: 72 h
FT3469 [1] = normal neural stem cell line; test: surviving fraction (nuclei count normalised to DMSO); higher = more cells surviving (less toxic)
E57 [2] = patient-derived glioblastoma stem cells of mesenchymal subtype; test: as above
E31 [3] = patient-derived glioblastoma stem cells of proneural subtype; test: as above
E34 [4] = patient-derived glioblastoma stem cells of proneural subtype; test: as above
E28 [5] = patient-derived glioblastoma stem cells of classical subtype; test: as above
E21 [6] = patient-derived glioblastoma stem cells of mesenchymal subtype; test: as above
E13 [7] = patient-derived glioblastoma stem cells of classical subtype; test: as above
FT3469 [8] = test: phenotypic distance (Euclidean, principal components) from DMSO controls (arbitrary units); higher = stronger morphological change
E57 [9] = test: as above
E31 [10] = test: as above
E34 [11] = test: as above
E28 [12] = test: as above
E21 [13] = test: as above
E13 [14] = test: as above
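Wherever phenotypic distance (Euclidean, principal components) from DMSO controls is given: cell Painting imaging in 384-well plates, CellProfiler features reduced to at least 20 principal components, Euclidean distance versus same-plate DMSO vehicle wells (0.1% v/v), median over six images per well.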
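Wherever surviving fraction (nuclei count normalised to DMSO) is given: nuclei counted by high-content imaging of Hoechst-stained cells in laminin-coated 384-well plates, relative to 0.1% DMSO vehicle wells, with staurosporine as cell-death control.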

CC(C)C(=O)OCC(=O)[C@@]12O[C@H](C3CCCCC3)O[C@@H]1C[C@H]1[C@@H]3CCC4=CC(=O)C=C[C@]4(C)[C@H]3[C@@H](O)C[C@@]12C [Ciclesonide]
Settings | phenotypic distance | surviving fraction
E13 [7], 4.1 nM | – | 0.929
E13 [7], 12.3 nM | – | 0.899
E13 [7], 37 nM | – | 0.833
E13 [7], 111.1 nM | – | 0.908
E13 [7], 333.3 nM | – | 0.889
E13 [7], 1000 nM | – | 0.796
E13 [7], 3000 nM | – | 0.233
E13 [14], 4.1 nM | 0.991 | –
E13 [14], 12.3 nM | 0.745 | –
E13 [14], 37 nM | 1.05 | –
E13 [14], 111.1 nM | 1.04 | –
E13 [14], 333.3 nM | 0.74 | –
E13 [14], 1000 nM | 1.02 | –
E13 [14], 3000 nM | 3.25 | –
E21 [6], 4.1 nM | – | 1.24
E21 [6], 12.3 nM | – | 1.23
E21 [6], 37 nM | – | 1.07
E21 [6], 111.1 nM | – | 1.17
E21 [6], 333.3 nM | – | 1.19
E21 [6], 1000 nM | – | 1.24
E21 [6], 3000 nM | – | 0.893
E21 [13], 4.1 nM | 1.83 | –
E21 [13], 12.3 nM | 2.04 | –
E21 [13], 37 nM | 1.74 | –
E21 [13], 111.1 nM | 2.02 | –
E21 [13], 333.3 nM | 2.07 | –
E21 [13], 1000 nM | 1.89 | –
E21 [13], 3000 nM | 2.4 | –
E28 [5], 4.1 nM | – | 1.11
E28 [5], 12.3 nM | – | 1
E28 [5], 37 nM | – | 1.26
E28 [5], 111.1 nM | – | 1.07
E28 [5], 333.3 nM | – | 0.894
E28 [5], 1000 nM | – | 1.05
E28 [5], 3000 nM | – | 0.615
E28 [12], 4.1 nM | 1.16 | –
E28 [12], 12.3 nM | 0.863 | –
E28 [12], 37 nM | 1.07 | –
E28 [12], 111.1 nM | 0.708 | –
E28 [12], 333.3 nM | 1 | –
E28 [12], 1000 nM | 0.827 | –
E28 [12], 3000 nM | 2.3 | –
E31 [3], 4.1 nM | – | 1.24
E31 [3], 12.3 nM | – | 1.11
E31 [3], 37 nM | – | 1.33
E31 [3], 111.1 nM | – | 1.47
E31 [3], 333.3 nM | – | 1.25
E31 [3], 1000 nM | – | 1.27
E31 [3], 3000 nM | – | 0.766
E31 [10], 4.1 nM | 2.4 | –
E31 [10], 12.3 nM | 2.62 | –
E31 [10], 37 nM | 3 | –
E31 [10], 111.1 nM | 3.03 | –
E31 [10], 333.3 nM | 3.06 | –
E31 [10], 1000 nM | 3.27 | –
E31 [10], 3000 nM | 2.27 | –
E34 [4], 4.1 nM | – | 1.04
E34 [4], 12.3 nM | – | 0.897
E34 [4], 37 nM | – | 1.13
E34 [4], 111.1 nM | – | 1.02
E34 [4], 333.3 nM | – | 1.08
E34 [4], 1000 nM | – | 1.06
E34 [4], 3000 nM | – | 0.589
E34 [11], 4.1 nM | 0.88 | –
E34 [11], 12.3 nM | 0.851 | –
E34 [11], 37 nM | 1.45 | –
E34 [11], 111.1 nM | 1.77 | –
E34 [11], 333.3 nM | 1.12 | –
E34 [11], 1000 nM | 0.771 | –
E34 [11], 3000 nM | 1.4 | –
E57 [2], 4.1 nM | – | 1.08
E57 [2], 12.3 nM | – | 1.18
E57 [2], 37 nM | – | 1.1
E57 [2], 111.1 nM | – | 1.32
E57 [2], 333.3 nM | – | 1.16
E57 [2], 1000 nM | – | 1.19
E57 [2], 3000 nM | – | 0.756
E57 [9], 4.1 nM | 1.77 | –
E57 [9], 12.3 nM | 2.02 | –
E57 [9], 37 nM | 2.36 | –
E57 [9], 111.1 nM | 2.51 | –
E57 [9], 333.3 nM | 2.31 | –
E57 [9], 1000 nM | 2.44 | –
E57 [9], 3000 nM | 2.49 | –
FT3469 [1], 4.1 nM | – | 1.1
FT3469 [1], 12.3 nM | – | 1.38
FT3469 [1], 37 nM | – | 1.15
FT3469 [1], 111.1 nM | – | 1.04
FT3469 [1], 333.3 nM | – | 1.03
FT3469 [1], 1000 nM | – | 1.1
FT3469 [1], 3000 nM | – | 0.803
FT3469 [8], 4.1 nM | 1.45 | –
FT3469 [8], 12.3 nM | 1.86 | –
FT3469 [8], 37 nM | 1.15 | –
FT3469 [8], 111.1 nM | 1.37 | –
FT3469 [8], 333.3 nM | 1.4 | –
FT3469 [8], 1000 nM | 0.997 | –
FT3469 [8], 3000 nM | 0.762 | –

O=C1CCc2cc(OCCCCc3nnnn3C3CCCCC3)ccc2N1 [Cilostazol]
Settings | phenotypic distance | surviving fraction
E13 [7], 4.1 nM | – | 0.989
E13 [7], 12.3 nM | – | 1.04
E13 [7], 37 nM | – | 1.01
E13 [7], 111.1 nM | – | 0.931
E13 [7], 333.3 nM | – | 0.933
E13 [7], 1000 nM | – | 0.98
E13 [7], 3000 nM | – | 0.897
E13 [14], 4.1 nM | 0.5 | –
E13 [14], 12.3 nM | 0.664 | –
E13 [14], 37 nM | 1.06 | –
E13 [14], 111.1 nM | 0.612 | –
E13 [14], 333.3 nM | 0.287 | –
E13 [14], 1000 nM | 0.5 | –
E13 [14], 3000 nM | 0.553 | –
E21 [6], 4.1 nM | – | 0.933
E21 [6], 12.3 nM | – | 1.09
E21 [6], 37 nM | – | 1.03
E21 [6], 111.1 nM | – | 1.04
E21 [6], 333.3 nM | – | 0.973
E21 [6], 1000 nM | – | 0.949
E21 [6], 3000 nM | – | 0.934
E21 [13], 4.1 nM | 0.676 | –
E21 [13], 12.3 nM | 1.17 | –
E21 [13], 37 nM | 1.02 | –
E21 [13], 111.1 nM | 1.46 | –
E21 [13], 333.3 nM | 0.998 | –
E21 [13], 1000 nM | 1.13 | –
E21 [13], 3000 nM | 1.15 | –
E28 [5], 4.1 nM | – | 0.916
E28 [5], 12.3 nM | – | 1.13
E28 [5], 37 nM | – | 0.892
E28 [5], 111.1 nM | – | 1.2
E28 [5], 333.3 nM | – | 1.01
E28 [5], 1000 nM | – | 1.12
E28 [5], 3000 nM | – | 0.914
E28 [12], 4.1 nM | 0.648 | –
E28 [12], 12.3 nM | 0.777 | –
E28 [12], 37 nM | 0.65 | –
E28 [12], 111.1 nM | 1.01 | –
E28 [12], 333.3 nM | 1.82 | –
E28 [12], 1000 nM | 0.846 | –
E28 [12], 3000 nM | 0.458 | –
E31 [3], 4.1 nM | – | 0.919
E31 [3], 12.3 nM | – | 1.04
E31 [3], 37 nM | – | 0.905
E31 [3], 111.1 nM | – | 0.98
E31 [3], 333.3 nM | – | 0.963
E31 [3], 1000 nM | – | 0.832
E31 [3], 3000 nM | – | 0.832
E31 [10], 4.1 nM | 0.904 | –
E31 [10], 12.3 nM | 0.814 | –
E31 [10], 37 nM | 0.863 | –
E31 [10], 111.1 nM | 0.598 | –
E31 [10], 333.3 nM | 0.893 | –
E31 [10], 1000 nM | 0.881 | –
E31 [10], 3000 nM | 0.868 | –
E34 [4], 4.1 nM | – | 0.904
E34 [4], 12.3 nM | – | 1.1
E34 [4], 37 nM | – | 0.938
E34 [4], 111.1 nM | – | 0.937
E34 [4], 333.3 nM | – | 1.05
E34 [4], 1000 nM | – | 1.04
E34 [4], 3000 nM | – | 0.959
E34 [11], 4.1 nM | 0.293 | –
E34 [11], 12.3 nM | 0.701 | –
E34 [11], 37 nM | 0.573 | –
E34 [11], 111.1 nM | 1.28 | –
E34 [11], 333.3 nM | 0.55 | –
E34 [11], 1000 nM | 0.46 | –
E34 [11], 3000 nM | 0.733 | –
E57 [2], 4.1 nM | – | 0.991
E57 [2], 12.3 nM | – | 0.969
E57 [2], 37 nM | – | 0.975
E57 [2], 111.1 nM | – | 1.04
E57 [2], 333.3 nM | – | 0.91
E57 [2], 1000 nM | – | 0.839
E57 [2], 3000 nM | – | 0.817
E57 [9], 4.1 nM | 0.508 | –
E57 [9], 12.3 nM | 0.665 | –
E57 [9], 37 nM | 0.802 | –
E57 [9], 111.1 nM | 0.893 | –
E57 [9], 333.3 nM | 1.16 | –
E57 [9], 1000 nM | 1.49 | –
E57 [9], 3000 nM | 1.42 | –
FT3469 [1], 4.1 nM | – | 1.03
FT3469 [1], 12.3 nM | – | 1.03
FT3469 [1], 37 nM | – | 0.96
FT3469 [1], 111.1 nM | – | 1.02
FT3469 [1], 333.3 nM | – | 0.949
FT3469 [1], 1000 nM | – | 1.16
FT3469 [1], 3000 nM | – | 0.891
FT3469 [8], 4.1 nM | 0.483 | –
FT3469 [8], 12.3 nM | 0.448 | –
FT3469 [8], 37 nM | 0.352 | –
FT3469 [8], 111.1 nM | 0.643 | –
FT3469 [8], 333.3 nM | 3.23 | –
FT3469 [8], 1000 nM | 0.826 | –
FT3469 [8], 3000 nM | 0.541 | –
